Assay results reported in ChEMBL document CHEMBL1629445, “Synthesis and evaluation of azetidinone analogues of combretastatin A-4 as tubulin targeting agents” (J Med Chem, 2010).
pIC50: −log10 of the molar value.

What was measured:
MCF7 = test: cells; conditions: Homo sapiens, MCF7, 72 h
MDA-MB-231 = test: Antiproliferative activity against human MDA-MB-231 cells after 72 hrs by MTT assay; type: functional, cell-based; conditions: MDA-MB-231, 72 h
[1] = Cytotoxicity against in CD1 mouse mammary epithelial cells after 72 hrs by alamar blue dye assay; type: cell-based; conditions: CD1, Epithelial cell
[2] = Growth inhibition of human NCI60 cells; type: functional

Structure (SMILES) | pIC50 (MCF7) | pIC50 (MDA-MB-231) | pIC50 [1] | GI50 [2] [nM]
COc1ccc([C@@H]2[C@@H](c3ccccc3)C(=S)N2c2cc(OC)c(OC)c(OC)c2)cc1 | 6.14 | – | – | –
COc1ccc([C@@H]2[C@@H](c3cc(OC)c(OC)c(OC)c3)C(=O)N2c2ccccc2)cc1 | 4.37 | – | – | –
COc1ccc([C@@H]2[C@@H](c3cc(OC)c(OC)c(OC)c3)C(=O)N2c2cc(OC)c(OC)c(OC)c2)cc1 | 5.15 | – | – | –
COC(=O)C(c1ccccc1)[C@H](Nc1cc(OC)c(OC)c(OC)c1)c1ccc(OC)c(O)c1 (some centres not stated) | < 4.00 | – | – | –
COc1ccc([C@@H]2[C@@H](c3ccc([N+](=O)[O-])cc3)C(=O)N2c2cc(OC)c(OC)c(OC)c2)cc1 | 6.31 | – | – | –
COc1ccc([C@@H]2[C@@H](c3ccc(F)cc3)C(=O)N2c2cc(OC)c(OC)c(OC)c2)cc1O | 7.18 | 6.97 | – | –
COc1ccc([C@@H]2[C@@H](c3ccc(O)cc3)C(=O)N2c2cc(OC)c(OC)c(OC)c2)cc1 | 7.23 | 6.80 | – | –
COc1ccc([C@@H]2[C@@H](c3ccccc3)C(=O)N2c2cc(OC)c(OC)c(OC)c2)cc1[N+](=O)[O-] | 6.33 | – | – | –
COc1ccc([C@@H]2[C@@H](c3ccccc3)C(=O)N2c2cc(OC)c(OC)c(OC)c2)cc1N | 7.19 | 6.37 | – | –
COc1ccc([C@@H](Nc2cc(OC)c(OC)c(OC)c2)[C@@H](CO)c2ccccc2)cc1O | 4.61 | – | – | –
COc1ccc(/C=C\c2cc(OC)c(OC)c(OC)c2)cc1O [COMBRETASTATIN A4] | 8.28 | 7.37 | < 5.00 | –
COc1ccc([C@@H]2[C@@H](c3ccc(OCc4ccccc4)cc3)C(=O)N2c2cc(OC)c(OC)c(OC)c2)cc1 | 5.10 | – | – | –
COc1ccc([C@@H]2[C@@H](c3ccc(F)cc3)C(=O)N2c2cc(OC)c(OC)c(OC)c2)cc1 | 7.37 | 6.64 | – | –
COc1ccc([C@@H]2[C@@H](c3ccc(O)cc3)C(=O)N2c2cc(OC)c(OC)c(OC)c2)cc1N | 7.40 | 5.77 | – | –
COc1ccc([C@@H]2[C@@H](c3ccc(F)cc3)C(=O)N2c2cc(OC)c(OC)c(OC)c2)cc1N | 7.26 | 7.09 | – | –
COc1ccc([C@H]2C(=O)N(c3ccccc3)[C@@H]2c2cc(OC)c(OC)c(OC)c2)cc1 | 4.42 | – | – | –
COc1ccc([C@@H]2[C@@H](c3ccc(N)cc3)C(=O)N2c2cc(OC)c(OC)c(OC)c2)cc1O | 8.35 | – | – | –
COc1ccc([C@@H]2[C@@H](c3ccc(C(F)(F)F)cc3)C(=O)N2c2cc(OC)c(OC)c(OC)c2)cc1 | 5.78 | – | – | –
COc1ccc([C@@H]2[C@@H](c3ccc(O)cc3)C(=O)N2c2cc(OC)c(OC)c(OC)c2)cc1O | 9.10 | 6.75 | < 5.00 | –
COc1ccc([C@@H]2[C@@H](c3ccccc3)C(=O)N2c2cc(OC)c(OC)c(OC)c2)cc1O | 8.02 | 7.54 | < 5.00 | 24
COc1ccc([C@@H]2[C@@H](c3ccc(SC)cc3)C(=O)N2c2cc(OC)c(OC)c(OC)c2)cc1 | 6.35 | – | – | –
COc1ccc(N2C(=O)[C@H](c3ccccc3)[C@H]2c2cc(OC)c(OC)c(OC)c2)cc1 | 4.37 | – | – | –
COc1ccc([C@@H]2[C@@H](c3ccc(F)cc3)C(=O)N2c2cc(OC)c(OC)c(OC)c2)cc1[N+](=O)[O-] | 5.87 | – | – | –
COc1ccc([C@@H]2[C@@H](c3ccc(N)cc3)C(=O)N2c2cc(OC)c(OC)c(OC)c2)cc1N | 7.51 | – | – | –

Further lines, with some results ahead:

pIC50 (MCF7) | Structure (SMILES) | pIC50 (MDA-MB-231) | pIC50 [1] | GI50 [2] [nM]
7.16 | COc1ccc([C@@H]2[C@@H](c3cccc(O)c3)C(=O)N2c2cc(OC)c(OC)c(OC)c2)cc1 | – | – | –
6.49 | COc1ccc([C@@H]2[C@@H](c3cccc(OC)c3)C(=O)N2c2cc(OC)c(OC)c(OC)c2)cc1 | – | – | –
6.52 | COc1ccc([C@@H]2[C@@H](c3ccc(Cl)cc3)C(=O)N2c2cc(OC)c(OC)c(OC)c2)cc1 | – | – | –
7.46 | COc1ccc([C@@H]2[C@@H](c3ccccc3)C(=O)N2c2cc(OC)c(OC)c(OC)c2)cc1 | 7.11 | – | –
6.50 | COc1ccc([C@@H]2[C@@H](c3ccc(F)c(F)c3)C(=O)N2c2cc(OC)c(OC)c(OC)c2)cc1 | – | – | –
6.50 | COc1ccc([C@@H]2[C@@H](c3ccc(C)cc3)C(=O)N2c2cc(OC)c(OC)c(OC)c2)cc1 | – | – | –
6.38 | COc1ccc([C@@H]2[C@@H](c3ccc(Br)cc3)C(=O)N2c2cc(OC)c(OC)c(OC)c2)cc1 | – | – | –
6.16 | COc1ccc([C@@H]2[C@@H](c3ccccc3OC)C(=O)N2c2cc(OC)c(OC)c(OC)c2)cc1 | – | – | –
6.65 | COc1ccc([C@@H]2[C@@H](c3ccc(OC)c(OC)c3)C(=O)N2c2cc(OC)c(OC)c(OC)c2)cc1 | – | – | –
6.74 | COc1ccc([C@H]2C(=O)N(c3cc(OC)c(OC)c(OC)c3)[C@@H]2c2ccc(OC)cc2)cc1 | – | – | 210
7.29 | COc1ccc([C@@H]2[C@@H](c3ccc(N)cc3)C(=O)N2c2cc(OC)c(OC)c(OC)c2)cc1 | 6.65 | – | –
5.47 | COc1ccc([C@@H]2[C@@H](c3ccc(Cl)c(Cl)c3)C(=O)N2c2cc(OC)c(OC)c(OC)c2)cc1 | – | – | –
